Assay results: patent US9957230B2, “Synergistic compositions” (Cadila Healthcare Limited, priority 2013, dated 2018)

Columns and labels:
Type in all cases: in vivo
db/db mice [1] = experiment: Antidiabetic activity with Exenatide or Glimepiride in db/db mice (studies VII and VIII): non-fasting serum glucose; details: Compound Ia 0.1 mg/kg
Description: The in-vivo efficacy for antidiabetic activity was done in male and female db/db mice of 12-16 weeks of age. Generally obese and diabetic animals are insulin resistant and have abnormalities in glucose and lipid metabolism. The development of diabetes and beta cell dysfunction in these animal models closely parallels the pathophysiology of the disease condition in humans. […] They progressively develop into insulinopenia with age, a feature commonly observed in last stage of type-2 diabetes, when blood sugar levels are insufficiently controlled. Therefore, this genetic model proves to be suitable for predicting the likely therapeutic benefit of novel euglycemic agents in human type-2 diabetes.
(§1) In this experiment, 49 db/db mice of 12-16 week were divided into 7 groups and as per their day 0 serum glucose levels. […] Detail treatments and routes of administrations were mentioned in Table no. 27. The treatment was given once daily for 7 days.
(§2) The blood was collected by retro-orbital sinus puncture method under light ether anesthesia on day 0 (pretreatment) and on day 6 (one hour after dose administration) for non-fasting glucose analysis and oral glucose tolerance test (OGTT) was performed on day 7 of the treatment in fasting condition. After blood collection serum was separated and analyzed glucose analysis using Spectra max and commercial diagnostic kits. The OGTT procedure followed is as given below—
(§3) The calculation for antidiabetic activity i.e. effect on serum glucose and improvement in glucose Area Under Curve (AUC) was calculated using the excel sheet and Graph Pad Prism software. The day-0 and day-6 glucose values of vehicle control and treatment were considered for calculating the effect on serum glucose. The effect on glucose AUC was calculated using the OGTT glucose levels at different time points and the improvement in glucose AUC were the reduction in glucose AUC after the treatment during OGTT.

db/db mice [2] = experiment: Oral glucose tolerance test in db/db mice (studies VII and VIII); details: Compound Ia 0.1 mg/kg, Glimepiride 2 mg/kg p.o.; for % improvement in AUC glucose vs control: Table 31 and text, OGTT after 7 days of treatment
Description: as §1, §2
Oral Glucose Tolerance Test (OGTT): One day before OGTT all animals were kept on overnight fasting and on the day of OGTT, day 7 of the treatment each animal was dosed with a single dose of vehicle/test compounds administered orally and 60-min post dosing blood was collected (0 min) and glucose load (2 gm/kg/10 ml) administered per orally. Blood was then collected at time points corresponding to 30, 60 and 120 min after glucose load administration. Serum was separated and analyzed for glucose using Spectra max and commercial diagnostic kits.
as §3

db/db mice [3] = experiment: Antidiabetic activity in db/db mice (studies I and II): non-fasting serum glucose; details: Compound (Ia) 0.1 mg/kg
Description: The in-vivo efficacy for antidiabetic activity was done for (I) and (II) individually with db/db mice of 13-14 weeks of age.
8. […] 8. The treatment was given oral gavages once daily for 14 days. […]

db/db mice [4] = experiment: Oral glucose tolerance test in db/db mice (studies I and II); details: Table 10; OGTT day 14, fasting, glucose load 2 gm/kg; Compound (Ia) 0.1 mg/kg, Sitagliptin 3 mg/kg p.o.
Description: 8. […] 8. The treatment was given oral gavages once daily for 14 days.
The OGTT procedure followed is as given below—

SMILES	Serum Glucose (mg/dl) Day 0 (db/db mice [1]; Table 30, Day 0 (pretreatment), male and female db/db mice, Glimepiride 2 mg/kg p.o. once daily) [mg/dL]	Serum Glucose (mg/dl) Day 6 (db/db mice [1]; Table 30, Day 6, one hour after dose, non-fasting, Glimepiride 2 mg/kg p.o. once daily) [mg/dL]	% Change Day 6 vs Day 0 (db/db mice [1]; Table 30, serum glucose, Glimepiride 2 mg/kg p.o.) [%]	% Change Vs control (db/db mice [1]; Table 30 and text, serum glucose day 6 vs vehicle control, Glimepiride 2 mg/kg p.o.) [%]	AUC Glucose (db/db mice [2]; Table 31, OGTT day 7, fasting, glucose load 2 gm/kg) [mg·min/dL]	% improvement in AUC glucose vs control (db/db mice [2]) [%]	% improvement in AUC glucose vs control (db/db mice [2]; listed as glimepiride)	Serum Glucose (mg/dl) Day 0 (db/db mice [3]; Table 9, Day 0 (pretreatment), female db/db mice, Sitagliptin 3 mg/kg p.o. once daily) [mg/dL]	Serum Glucose (mg/dl) Day 12 (db/db mice [3]; Table 9, Day 12, non-fasting, female db/db mice, Sitagliptin 3 mg/kg p.o. once daily) [mg/dL]	% Change Vs control (db/db mice [3]; Table 9, serum glucose day 12 vs vehicle control, Sitagliptin 3 mg/kg p.o. once daily) [%]	% Change Day 12 vs Day 0 (db/db mice [3]; Table 9, serum glucose, Sitagliptin 3 mg/kg p.o. once daily) [%]	reduction in serum glucose (db/db mice [3]; female db/db mice, Sitagliptin 3 mg/kg, Metformin 150 mg/kg)	AUC Glucose (db/db mice [4]) [mg·min/dL]
CCC1=C(C)CN(C(=O)NCCc2ccc(S(=O)(=O)NC(=O)N[C@H]3CC[C@H](C)CC3)cc2)C1=O [Glimepiride, reference compound]	402.0	506.7	26.9	10.1	62529.0	−2.6	does not any improvement						
N[C@@H](CC(=O)N1CCn2c(nnc2C(F)(F)F)C1)Cc1cc(F)c(F)cc1F [Sitagliptin, reference compound]								407.9 ± 34.5	485.3 ± 50.5	18.5 ± 5.0	18.3 ± 5.0	does not show any reduction rather it has shown slight increase in serum glucose	64655.9 ± 6300.6
